K obs / 1 and Ki data for 26 compounds are collected here from ChEMBL document CHEMBL1149962, “Structural and stereochemical requirements of time-dependent inactivators of the interleukin-1 converting enzyme” (Bioorg Med Chem Lett, 1995).

In test [1] the target is T1, Caspase-1 (Homo sapiens) (UniProt P29466).
T1 sequence (whole entry): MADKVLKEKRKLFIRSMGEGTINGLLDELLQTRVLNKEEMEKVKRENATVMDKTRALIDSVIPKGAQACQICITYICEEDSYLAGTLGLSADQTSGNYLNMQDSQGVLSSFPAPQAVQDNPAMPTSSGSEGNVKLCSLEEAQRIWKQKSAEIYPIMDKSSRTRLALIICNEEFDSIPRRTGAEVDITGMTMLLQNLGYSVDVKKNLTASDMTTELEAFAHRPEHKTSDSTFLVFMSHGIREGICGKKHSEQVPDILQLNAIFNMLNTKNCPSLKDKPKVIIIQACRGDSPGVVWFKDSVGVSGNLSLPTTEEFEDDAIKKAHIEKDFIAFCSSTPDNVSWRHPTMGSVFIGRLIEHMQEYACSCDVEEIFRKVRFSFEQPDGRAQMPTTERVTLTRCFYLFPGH
The test can be described thus: Inhibition of IL-1 beta converting enzyme.

The target of a further test is T2, Caspase-1 (Homo sapiens, UniProt P29466).
T2 sequence (P29466 whole entry): T1 sequence (whole entry)
Description: Binding affinity against IL-1 beta converting enzyme.

Test [2] concerns the target T1, Caspase-1 (Homo sapiens). Description: k obs/[I] against Interleukin-1-beta Converting enzyme (ICE) was determined.

Consider `O=C(O)C[C@H](NC(=O)OCc1ccccc1)C(O)COC(=O)c1c(Cl)cccc1Cl` (stereo partly specified), for which, on Caspase-1 (Homo sapiens) [1], the k obs / 1 is less than 1000 M⁻¹ s⁻¹. The same measure, in the same setting: then `CC(C)[C@H](NC(=O)OCc1ccccc1)C(=O)N[C@@H](CC(=O)O)C(=O)COC(=O)c1c(Cl)cccc1Cl`, with 41000 M⁻¹ s⁻¹. Compound `C[C@@H](NC(=O)OCc1ccccc1)C(=O)N[C@@H](CC(=O)O)C(=O)COC(=O)c1c(Cl)cccc1Cl` gave a k obs / 1 at Caspase-1 (Homo sapiens) [1] of less than 1000 M⁻¹ s⁻¹. The same measure, in the same setting: then `O=C(N[C@@H](Cc1nnn[nH]1)C(=O)COC(=O)c1c(Cl)cccc1Cl)OCc1ccccc1`, with less than 1000 M⁻¹ s⁻¹; and `COC(=O)N[C@@H](Cc1cccs1)C(=O)N[C@@H](CC(=O)O)C(=O)COC(=O)c1c(Cl)cccc1Cl`, with 2500 M⁻¹ s⁻¹.

For `COC(=O)N[C@@H](C)C(=O)N[C@@H](CC(=O)O)C(=O)COC(=O)c1c(Cl)cccc1Cl`, the k obs / 1 on Caspase-1 (Homo sapiens) [1] stood at 7000 M⁻¹ s⁻¹. `CC(C)[C@H](NC(=O)OCc1ccccc1)C(=O)N[C@@H](C)C(=O)N[C@H](C=O)CC(=O)O`: the Ki on Caspase-1 was 15 nM. In turn, `O=C(O)C[C@H](NC(=O)OCc1ccccc1)C(=O)COC(=O)c1c(Cl)cccc1Cl` registered a k obs / 1 at Caspase-1 (Homo sapiens) [1] of 7400 M⁻¹ s⁻¹. In turn, `C[C@H](NC(=O)[C@H](Cc1ccccc1)NC(=O)OCc1ccccc1)C(=O)N[C@@H](CC(=O)O)C(=O)COC(=O)c1c(Cl)cccc1Cl` came in with a k obs / 1 at Caspase-1 (Homo sapiens) [1] of 233000 M⁻¹ s⁻¹. Take `C[C@H](C(=O)O)[C@H](NC(=O)OCc1ccccc1)C(=O)COC(=O)c1c(Cl)cccc1Cl`: the k obs / 1 at Caspase-1 (Homo sapiens) [1] was less than 1000 M⁻¹ s⁻¹. The same measure, in the same setting: to `COC(=O)N[C@H](C(=O)N[C@@H](CC(=O)O)C(=O)COC(=O)c1c(Cl)cccc1Cl)C(C)C` belongs 4900 M⁻¹ s⁻¹; to `O=C(O)C[C@@H](CCOC(=O)c1c(Cl)cccc1Cl)NC(=O)OCc1ccccc1`, less than 1000 M⁻¹ s⁻¹; to `O=C(O)C[C@H](NC(=O)OCc1ccccc1)C(=O)COc1c(Cl)cccc1Cl`, less than 1000 M⁻¹ s⁻¹. For `CC(C)[C@H](NC(=O)OCc1ccccc1)C(=O)N[C@@H](C)C(=O)N[C@@H](C=O)CC(=O)O`, at Caspase-1, the Ki is 15 nM.

The compound `C[C@H](NC(=O)[C@@H](C)NC(=O)OCc1ccccc1)C(=O)N[C@@H](CC(=O)O)C(=O)COC(=O)c1c(Cl)cccc1Cl` displayed a k obs / 1 at Caspase-1 (Homo sapiens) [1] of 10000 M⁻¹ s⁻¹. Still for that read-out and setting: then `C[C@H](NC(=O)OCc1ccccc1)C(=O)N[C@@H](C)C(=O)N[C@@H](CC(=O)O)C(=O)COC(=O)c1c(Cl)cccc1Cl`, with 116000 M⁻¹ s⁻¹.

`COC(=O)N[C@@H](Cc1c[nH]cn1)C(=O)N[C@@H](CC(=O)O)C(=O)COC(=O)c1c(Cl)cccc1Cl`: the k obs / 1 at Caspase-1 (Homo sapiens) [1] was determined as 2200 M⁻¹ s⁻¹. The same measure, in the same setting: then `O=C(O)C[C@@H](C(=O)COC(=O)c1c(Cl)cccc1Cl)C(=O)NCCc1ccccc1`, with less than 1000 M⁻¹ s⁻¹; and `C[C@@H](C(=O)O)[C@H](NC(=O)OCc1ccccc1)C(=O)COC(=O)c1c(Cl)cccc1Cl`, with less than 1000 M⁻¹ s⁻¹. In the case of `O=C(O)CC[C@H](NC(=O)OCc1ccccc1)C(=O)COC(=O)c1c(Cl)cccc1Cl`, the k obs / 1 on Caspase-1 (Homo sapiens) [2] was less than 1000 M⁻¹ s⁻¹. For `O=C(O)C[C@H](OC(=O)OCc1ccccc1)C(=O)COC(=O)c1c(Cl)cccc1Cl`, on Caspase-1 (Homo sapiens) [1], the k obs / 1 was less than 1000 M⁻¹ s⁻¹. Same read-out and setting: then `O=C(O)CCC[C@H](NC(=O)OCc1ccccc1)C(=O)COC(=O)c1c(Cl)cccc1Cl`, with less than 1000 M⁻¹ s⁻¹; and `O=C(O)C[C@H](NC(=O)OCc1ccccc1)C(=O)CSc1c(Cl)cccc1Cl`, with less than 1000 M⁻¹ s⁻¹; and `CN(C(=O)OCc1ccccc1)[C@@H](CC(=O)O)C(=O)COC(=O)c1c(Cl)cccc1Cl`, with less than 1000 M⁻¹ s⁻¹. Same read-out and setting: then `O=C(O)C[C@@H](CC(=O)COC(=O)c1c(Cl)cccc1Cl)NC(=O)OCc1ccccc1`, with less than 1000 M⁻¹ s⁻¹. At Caspase-1 (Homo sapiens) [1], `COC(=O)NCC(=O)N[C@@H](CC(=O)O)C(=O)COC(=O)c1c(Cl)cccc1Cl` gave a k obs / 1 of less than 1000 M⁻¹ s⁻¹.
